One data set relates to liver ApoB mRNA. Description: Liver ApoB mRNA knockdown after IV SNALP administration, branched DNA (QuantiGene) assay relative to GAPDH. Format: in vivo, Balb/c mice. Conditions: for ApoB silencing activity compared to SNALP containing C2K when administered at the same dose: 0.033 or 0.05 mg/kg IV, 48 h (Table 6); for KD50 compared to SNALP containing the C2K benchmark cationic lipid: 48 h (FIG. 2, FIG. 3); for ApoB knockdown relative to PBS control (%): 1:57 SNALP with ApoB-10164 siRNA, ApoB:GAPD, 48 h, n = 3. The protocol:
For dose response studies, SNALP formulations were administered by IV injection at 0.01 mg/kg, 0.033 mg/kg, or 0.1 mg/kg into female Balb/c mice (n=3 per group). Liver ApoB mRNA levels were evaluated at 48 hours after SNALP administration by a branched DNA assay (QuantiGene assay) to assess ApoB mRNA relative to the housekeeping gene GAPDH.
Each SNALP formulation (6:1 L:D) was administered by intravenous (IV) injection at 0.1 mg/kg into female Balb/c mice (n=3 per group). Liver ApoB mRNA levels were evaluated at 48 hours after SNALP administration by a branched DNA assay (QuantiGene assay) to assess ApoB mRNA relative to the housekeeping gene GAPDH.
SNALP formulations were administered by IV injection at 0.05 mg/kg into female Balb/c mice (n=3 per group). Liver ApoB mRNA levels were evaluated at 48 hours after SNALP administration by a branched DNA assay (QuantiGene assay) to assess ApoB mRNA relative to the housekeeping gene GAPDH.
For these dose response studies, SNALP formulations were administered by IV injection at 0.05, 0.10, or 0.25 mg/kg for DLinDMA and at 0.01, 0.025, or 0.05 mg/kg for C2K or MC3 into female Balb/c mice (n=4 per group). Liver ApoB mRNA levels were evaluated at 48 hours after SNALP administration (Error bars=SD).
SNALP formulations were administered by IV injection at 0.033 mg/kg or at 0.05 mg/kg into Balb/c mice (n=3 per group). Liver ApoB mRNA levels were evaluated at 48 hours after SNALP administration by a branched DNA assay (QuantiGene assay) to assess ApoB mRNA relative to the housekeeping gene GAPDH.

Data set [1] in a line: Tolerability assessments of SNALP in mice (liver enzymes, body weight, neutrophil to lymphocyte ratio etc.). The data set is classed as in vivo.
Setting [2] is: 1:57 SNALP, 0.01, 0.033 or 0.1 mg/kg IV, female Balb/c mice, 48 h (FIG. 1, FIG. 3).
Setting [3] is: 1:57 SNALP, 0.01, 0.033 or 0.1 mg/kg IV, female Balb/c mice.

Here are results for 12 molecules from patent publication US8865675B2, “Compositions and methods for silencing apolipoprotein B” (Protiva Biotherapeutics, Inc., priority 2010, dated 2014).

Take `CC/C=C\CCCN(CCCN(C)C)C(=O)OC(CCCCCCC/C=C\C/C=C\CCCCC)CCCCCCCCC/C=C\C/C=C\CCCCC` (stereo not shown) [Compound 28, (6Z,9Z,28Z,31Z)-heptatriaconta-6,9,28,31-tetraen-18-yl 3-(dimethylamino)propyl((Z)-hept-4-enyl)carbamate]: the “ApoB silencing activity compared to SNALP containing C2K when administered at the same dose” value in the data set on liver ApoB mRNA (1:57 SNALP, Balb/c mice) is reported as “unexpectedly improved ApoB silencing activity”.
Take `CC/C=C\C/C=C\C/C=C\CCCCCCCCC(CCCCCCCC/C=C\C/C=C\C/C=C\CC)OC(=O)CCCN(C)C` [Compound 4, LenMC3]: the “ApoB silencing activity compared to SNALP containing the C2K benchmark cationic lipid” value in the data set on liver ApoB mRNA (setting [2]) is listed as “improved ApoB silencing activity”. Moreover, the “KD50 compared to SNALP containing the C2K benchmark cationic lipid” value in the data set with liver ApoB mRNA (setting [3]) was “substantially lower KD50 values”. Also, in the data set on liver ApoB mRNA (1:57 SNALP, Balb/c mice), the “ApoB silencing activity compared to SNALP containing C2K when administered at the same dose” value is given as “unexpectedly improved ApoB silencing activity”.
As to `CCCCC/C=C\C/C=C\CCCCCCCCCC(CCCCCCC/C=C\C/C=C\CCCCC)OC(=O)N(CCCCCC)CCCN(C)C` (stereo not shown) [Compound 27, (6Z,9Z,28Z,31Z)-heptatriaconta-6,9,28,31-tetraen-18-yl 3-(dimethylamino)propyl(hexyl)carbamate], in the data set on liver ApoB mRNA (1:57 SNALP, Balb/c mice), the “ApoB silencing activity compared to SNALP containing C2K when administered at the same dose” value is on record as “unexpectedly improved ApoB silencing activity”.
Turning to `CCCCC/C=C\C/C=C\CCCCCCCCC(CCCCCCCC/C=C\C/C=C\CCCCC)OCCCN(C)C` [Compound 13, 3-((6Z,9Z,28Z,31Z)-heptatriaconta-6,9,28,31-tetraen-19-yloxy)-N,N-dimethylpropan-1-amine], the “ApoB silencing activity compared to SNALP containing the C2K benchmark cationic lipid” value in the data set with liver ApoB mRNA (1:57 SNALP, 0.05 mg/kg IV, female Balb/c mice, 48 h (FIG. 5)) is recorded as “unexpectedly improved ApoB silencing activity”. Also, the “ApoB silencing activity compared to SNALP containing C2K when administered at the same dose” value in the data set with liver ApoB mRNA (1:57 SNALP, Balb/c mice) was “unexpectedly improved ApoB silencing activity”.
For the molecule `CCC1CC1CC1CC1CC1CC1CCCCCCCCC1(CCCCCCCCC2CC2CC2CC2CC2CC2CC)OCC(CCN(C)C)O1` (stereo not shown) [Compound 46, CP-DLen-C2K-DMA], in data set [1] (mouse, in vivo), the “body weight loss compared to mice administered SNALP containing C2K” value was “less body weight loss”, the “increase in liver enzyme levels compared to mice administered SNALP containing C2K” value was “lower increase in liver enzyme levels” and the “neutrophil to lymphocyte ratio compared to mice administered SNALP containing C2K” value is reported as “more favorable neutrophil to lymphocyte ratio”. The “toxicity profile compared to SNALP containing C2K” value in data set [1] (various tolerability assessments in vivo) is listed as “unexpectedly more favorable toxicity profile”. In the data set on liver ApoB mRNA (1:57 SNALP, 0.01, 0.033 or 0.1 mg/kg IV, female Balb/c mice, 48 h (FIG. 3)), the “potency in silencing ApoB mRNA expression” value is given as “considerable potency”.
For the molecule `CCCCC/C=C\C/C=C\C/C=C\CCCCCC(CCCCC/C=C\C/C=C\C/C=C\CCCCC)OC(=O)CCCN(C)C` [Compound 8, γ-LenMC3], in the data set on liver ApoB mRNA (setting [2]), the “ApoB silencing activity compared to SNALP containing the C2K benchmark cationic lipid” value was “improved ApoB silencing activity”. Moreover, in the data set on liver ApoB mRNA (setting [3]), the “KD50 compared to SNALP containing the C2K benchmark cationic lipid” value is “substantially lower KD50 values”. In addition, the “ApoB silencing activity compared to SNALP containing C2K when administered at the same dose” value with liver ApoB mRNA (1:57 SNALP, Balb/c mice) is listed as “unexpectedly improved ApoB silencing activity”.
For `CCCCC/C=C\C/C=C\CCCCCCCCC(CCCCCCCC/C=C\C/C=C\CCCCC)OCCCCN(C)C` [Compound 15, MC4 Ether], the “ApoB silencing activity compared to SNALP containing C2K when administered at the same dose” value in the data set on liver ApoB mRNA (1:57 SNALP, Balb/c mice) was “unexpectedly improved ApoB silencing activity”.
With `CCCCC/C=C\C/C=C\CCCCCCCCC(CCCCCCCC/C=C\C/C=C\CCCCC)OC(=O)CCCN(C)C` [Compound 1, (6Z,9Z,28Z,31Z)-heptatriaconta-6,9,28,31-tetraen-19-yl 4-(dimethylamino)butanoate], the “potency versus the corresponding DLinDMA or C2K SNALP formulations, comparison of KD50 values” in the data set on liver ApoB mRNA (1:57 SNALP containing siApoB-8 or siApoB-10, female Balb/c mice, 48 h (FIG. 6)) is “more potent”. The “ApoB silencing activity compared to SNALP containing the C2K benchmark cationic lipid” value in the data set with liver ApoB mRNA (setting [2]) is given as “improved ApoB silencing activity”. Moreover, the “KD50 compared to SNALP containing the C2K benchmark cationic lipid” value in the data set on liver ApoB mRNA (setting [3]) is reported as “substantially lower KD50 values”. Further, in the data set on liver ApoB mRNA (1:57 SNALP, Balb/c mice), the “ApoB silencing activity compared to SNALP containing C2K when administered at the same dose” value is on record as “unexpectedly improved ApoB silencing activity”. Besides, in the data set on liver ApoB mRNA (1:57 lipid particle), the “potency in silencing ApoB expression in vivo compared to SNALP containing DLin-C2K-DMA (C2K) or DLinDMA” value is recorded as “unexpectedly more potent”.
Consider `CCCCC/C=C\C/C=C\CCCCCCCCC(CCCCCCCC/C=C\C/C=C\CCCCC)OC(=O)N(C)CCCN(C)C` [Compound 10, MC3MC], for which the “ApoB knockdown relative to PBS control (%)” value in the data set on liver ApoB mRNA (0.033 mg/kg IV, Balb/c mice) is given as −50%.
“(6Z,9Z,28Z,31Z)-heptatriaconta-6,9,28,31-tetraen-18-yl 2-(dimethylamino)ethyl(ethyl)carbamate [Compound 29]”: the “ApoB knockdown relative to PBS control (%)” value in the data set on liver ApoB mRNA (0.05 mg/kg IV, Balb/c mice) is −59%.
For `CC/C=C\C/C=C\C/C=C\CCCCCCCCC(CCCCCCCC/C=C\C/C=C\C/C=C\CC)OCCCCN(C)C` [Compound 35, 4-((3Z,6Z,9Z,28Z,31Z,34Z)-heptatriaconta-3,6,9,28,31,34-hexaen-19-yloxy)-N,N-dimethylbutan-1-amine], the “ApoB silencing activity compared to SNALP containing C2K when administered at the same dose” value in the data set with liver ApoB mRNA (1:57 SNALP, Balb/c mice) is given as “unexpectedly improved ApoB silencing activity”.
Regarding “siApoB-10: APOB siRNA of sense strand SEQ ID NO: 4 and antisense strand SEQ ID NO: 11 with 2′OMe nucleotides (sense AGNGNCANCACACNNAANACC; antisense UAUUCAGUGUGAUGACACUUG; 2'OMe nucleotides, chemistry not fully specified)”, in the data set with liver ApoB mRNA (modifications increased from 7 in siApoB-8 to 13 in siApoB-10, 1:57 SNALP, Balb/c mice, 48 h (FIG. 6)), the “silencing activity of more highly 2′OMe-modified APOB siRNA relative to siApoB-8” value was “does not decrease activity”.
